Source: patent US7445765B2, “Radiopharmaceutical for diagnostic imaging containing a technetium-99m nitride heterocomplex” (Nihon Medi-Physics Co., Ltd., priority 2000, dated 2008)

How the values were obtained:
[1] = Biodistribution of the 99mTc(N) heterocomplexes in rats (organ uptake, heart accumulation, heart/lung and heart/liver ratios); assay type: in vivo, female Sprague-Dawley rats
How it was run: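 Female Sprague-Dawley rats (200–250 g, n=3), ketamine/xylazine anaesthesia, got 300–370 kBq of each purified heterocomplex in pH 7.4 phosphate buffer (10% ethanol) via the jugular vein. They were killed at several post-injection times. Heart blood and washed, weighed organs were gamma-counted, taking whole blood as 6.5% of body weight.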

[2] = Measurement of Log k′ by HPLC, PNP5 or PNP6 heterocomplexes; assay type: physicochemical; details: HPLC C18, methanol/phosphate buffer (pH 7.4, 0.02M), 1.0 mL/min; extrapolated to 0% organic solvent
Description: Log k′o values, measured at various compositions of the mobile phase, were determind for the ^99mTc(N) heterocomplexes obtained using PNP5 or PNP6 as a bisphosphinoamine compound. The analysis of the relationship between Log k′o values and the mobile-phase composition yielded extrapolated Log k′ values as a measure of the partitioning between the hydrophobic stationary phase and water. The Log k′ values were extrapolated from the linear part of the curve.
TLC chromatography was carried out on silica-gel plates and using the mixture ethanol/chloroform/toluene/[NH4][CH3COO] (0.5 M) (5:3:3:0.5) as mobile phase. […] HPLC analysis was performed on a Beckman System Gold instrument equipped with a Programmable Solvent Module 126, a scanning detector Module 166 and a radioisotope detector Module 170. A C18 reversed-phase precolumn (Ultrasphere Beckman, 4.6×45 mm), a C18 reversed-phase column (Ultrasphere Beckman, 4.6×250 mm) and a 100-μL loop were used. The mobile phase was methanol in various mixtures (% v/v) with a phosphate buffer (pH=7.4, 0.02M) at a flow rate of 1.0 mL min^−1. Before injection, all solutions were purified using a CM Sep-Pak cartridge. […]

For `CCOCCN1CC[P](CCCOC)(CCCOC)[99Tc+]2(#[N])([S]C(N(CCOCC)CCOCC)=[S]2)[P](CCCOC)(CCCOC)CC1` [[^99mTc(N) (PNP5) (DBODC)]^+], the “Biodistribution in rats: Adrenal glands” value ([1]; 0 min post injection) was 2.87 % dose/g, the “Biodistribution in rats: Blood” value ([1]; 0 min post injection) was 6.65 % dose/g and the “Biodistribution in rats: Brain” value ([1]; 0 min post injection) was 0.45 % dose/g. The “Biodistribution in rats: Heart” value ([1]; 0 min post injection) was 5.01 % dose/g, the “Biodistribution in rats: Intestine” value ([1]; 0 min post injection) was 1.71 % dose/g and the “Biodistribution in rats: Kidneys” value ([1]; 0 min post injection) was 3.71 % dose/g. For the same compound, the “Biodistribution in rats: Liver” value ([1]; 0 min post injection) was 0.82 % dose/g, the “Biodistribution in rats: Lungs” value ([1]; 0 min post injection) was 6.58 % dose/g and the “Biodistribution in rats: Muscle” value ([1]; 0 min post injection) was 0.09 % dose/g. For the same compound, the “Biodistribution in rats: Spleen” value ([1]; 0 min post injection) was 1.75 % dose/g, the “Biodistribution in rats: Submax. glands” value ([1]; 0 min post injection) was 0.16 % dose/g and the “Biodistribution in rats: Adrenal glands” value ([1]; 2 min post injection) was 3.95 % dose/g. The “Biodistribution in rats: Blood” value ([1]; 2 min post injection) was 0.11 % dose/g, the “Biodistribution in rats: Brain” value ([1]; 2 min post injection) was 0.03 % dose/g and the “Biodistribution in rats: Heart” value ([1]; 2 min post injection) was 3.94 % dose/g. The “Biodistribution in rats: Intestine” value ([1]; 2 min post injection) was 7.97 % dose/g, the “Biodistribution in rats: Kidneys” value ([1]; 2 min post injection) was 14.69 % dose/g and the “Biodistribution in rats: Liver” value ([1]; 2 min post injection) was 2.66 % dose/g. For the same compound, the “Biodistribution in rats: Lungs” value ([1]; 2 min post injection) was 0.99 % dose/g, the “Biodistribution in rats: Muscle” value ([1]; 2 min post injection) was 0.20 % dose/g and the “Biodistribution in rats: Spleen” value ([1]; 2 min post injection) was 2.68 % dose/g. The “Biodistribution in rats: Submax. glands” value ([1]; 2 min post injection) was 1.77 % dose/g, the “Biodistribution in rats: Adrenal glands” value ([1]; 10 min post injection) was 3.73 % dose/g and the “Biodistribution in rats: Blood” value ([1]; 10 min post injection) was 0.03 % dose/g. The “Biodistribution in rats: Brain” value ([1]; 10 min post injection) was 0.01 % dose/g, the “Biodistribution in rats: Heart” value ([1]; 10 min post injection) was 3.69 % dose/g and the “Biodistribution in rats: Intestine” value ([1]; 10 min post injection) was 9.04 % dose/g. The “Biodistribution in rats: Kidneys” value ([1]; 10 min post injection) was 9.16 % dose/g, the “Biodistribution in rats: Liver” value ([1]; 10 min post injection) was 1.61 % dose/g and the “Biodistribution in rats: Lungs” value ([1]; 10 min post injection) was 0.88 % dose/g. The “Biodistribution in rats: Muscle” value ([1]; 10 min post injection) was 0.21 % dose/g, the “Biodistribution in rats: Spleen” value ([1]; 10 min post injection) was 1.79 % dose/g and the “Biodistribution in rats: Submax. glands” value ([1]; 10 min post injection) was 1.79 % dose/g. For the same compound, the “Biodistribution in rats: Adrenal glands” value ([1]; 20 min post injection) was 3.00 % dose/g, the “Biodistribution in rats: Blood” value ([1]; 20 min post injection) was 0.02 % dose/g and the “Biodistribution in rats: Brain” value ([1]; 20 min post injection) was 0.01 % dose/g. The “Biodistribution in rats: Heart” value ([1]; 20 min post injection) was 3.63 % dose/g, the “Biodistribution in rats: Intestine” value ([1]; 20 min post injection) was 9.63 % dose/g and the “Biodistribution in rats: Kidneys” value ([1]; 20 min post injection) was 6.58 % dose/g. For the same compound, the “Biodistribution in rats: Liver” value ([1]; 20 min post injection) was 0.96 % dose/g, the “Biodistribution in rats: Lungs” value ([1]; 20 min post injection) was 0.57 % dose/g and the “Biodistribution in rats: Muscle” value ([1]; 20 min post injection) was 0.17 % dose/g. For the same compound, the “Biodistribution in rats: Spleen” value ([1]; 20 min post injection) was 1.41 % dose/g, the “Biodistribution in rats: Submax. glands” value ([1]; 20 min post injection) was 1.57 % dose/g and the “Biodistribution in rats: Adrenal glands” value ([1]; 30 min post injection) was 3.36 % dose/g. For the same compound, the “Biodistribution in rats: Blood” value ([1]; 30 min post injection) was 0.02 % dose/g, the “Biodistribution in rats: Brain” value ([1]; 30 min post injection) was 0.01 % dose/g and the “Biodistribution in rats: Heart” value ([1]; 30 min post injection) was 3.73 % dose/g. The “Biodistribution in rats: Intestine” value ([1]; 30 min post injection) was 6.70 % dose/g, the “Biodistribution in rats: Kidneys” value ([1]; 30 min post injection) was 6.70 % dose/g and the “Biodistribution in rats: Liver” value ([1]; 30 min post injection) was 0.72 % dose/g. The “Biodistribution in rats: Lungs” value ([1]; 30 min post injection) was 0.64 % dose/g, the “Biodistribution in rats: Muscle” value ([1]; 30 min post injection) was 0.19 % dose/g and the “Biodistribution in rats: Spleen” value ([1]; 30 min post injection) was 0.92 % dose/g. For the same compound, the “Biodistribution in rats: Submax. glands” value ([1]; 30 min post injection) was 1.88 % dose/g, the “Biodistribution in rats: Adrenal glands” value ([1]; 60 min post injection) was 4.17 % dose/g and the “Biodistribution in rats: Blood” value ([1]; 60 min post injection) was 0.01 % dose/g. The “Biodistribution in rats: Brain” value ([1]; 60 min post injection) was 0.01 % dose/g, the “Biodistribution in rats: Heart” value ([1]; 60 min post injection) was 3.76 % dose/g and the “Biodistribution in rats: Intestine” value ([1]; 60 min post injection) was 6.52 % dose/g. The “Biodistribution in rats: Kidneys” value ([1]; 60 min post injection) was 5.73 % dose/g, the “Biodistribution in rats: Liver” value ([1]; 60 min post injection) was 0.20 % dose/g and the “Biodistribution in rats: Lungs” value ([1]; 60 min post injection) was 0.46 % dose/g. For the same compound, the “Biodistribution in rats: Muscle” value ([1]; 60 min post injection) was 0.21 % dose/g, the “Biodistribution in rats: Spleen” value ([1]; 60 min post injection) was 0.41 % dose/g and the “Biodistribution in rats: Submax. glands” value ([1]; 60 min post injection) was 1.84 % dose/g. The “Biodistribution in rats: Adrenal glands” value ([1]; 120 min post injection) was 3.44 % dose/g, the “Biodistribution in rats: Blood” value ([1]; 120 min post injection) was 0.01 % dose/g and the “Biodistribution in rats: Brain” value ([1]; 120 min post injection) was 0.00 % dose/g. The “Biodistribution in rats: Heart” value ([1]; 120 min post injection) was 3.31 % dose/g, the “Biodistribution in rats: Intestine” value ([1]; 120 min post injection) was 6.57 % dose/g and the “Biodistribution in rats: Kidneys” value ([1]; 120 min post injection) was 3.48 % dose/g. For the same compound, the “Biodistribution in rats: Liver” value ([1]; 120 min post injection) was 0.10 % dose/g, the “Biodistribution in rats: Lungs” value ([1]; 120 min post injection) was 0.25 % dose/g and the “Biodistribution in rats: Muscle” value ([1]; 120 min post injection) was 0.23 % dose/g. The “Biodistribution in rats: Spleen” value ([1]; 120 min post injection) was 0.21 % dose/g, the “Biodistribution in rats: Submax. glands” value ([1]; 120 min post injection) was 2.09 % dose/g and the “LOG k′” value [2] was 3.69.
